Data as given in EP4151214A1, “RIMEGEPANT FOR TREATMENT OF HUMAN CORONAVIRUS INFECTION” (priority 2021, dated 2023).

Experiments:
CGRP receptor = target: T1, CGRP receptor (Homo sapiens, UniProt O60894+Q16602); conditions: orally disintegrating tablet; cited from earlier work
T1 construct: host or cells: human patients (clinical use)

[1] = cited from earlier work
[2] = target: nsp14-nsp10 protein complex (Severe acute respiratory syndrome coronavirus 2, UniProt P0DTD1); experiment: nsp14 ExoN activity assay with nsp14-nsp10 complex (gel-based, 32P-labelled H4 RNA); assay type: biochemical, SARS-CoV-2
Method: (§1) Both RNAs were labelled at their 5' end with [^32P]-γ-ATP and T4 Polynucleotide Kinase (Ambion) in a standard reaction. MicroSpin G-50 columns (Cytiva) were used to remove excess [^32P]-γ-ATP. The synthetic RNAs were resuspended in 10 mM of Tris-HCI pH 8.0 and incubated 10 min at 80°C followed by 45 min at 37°C. • Different concentrations (µM) of rimegepant were incubated with 300 nM of nsp15 or with 40 nM-160 nM of nsp14-nsp10 proteins (7 minutes at room temperature), before initiating the in vitro assay through the addition of the P^32-RNA substrate (50 nM). The activity assays were performed in a final volume of 12 µl containing the activity buffer 50 mM HEPES pH 7.4, 1 mM DTT, 5 mM MgCl2 in case of nsp14-nsp10 complex, and 25 mM HEPES pH 7.4, 50 mM NaCl, 1 mM DTT, 10 mM NaHPO4, 5 mM MnCl2 for nsp15. The reactions were incubated at 37°C, and then aliquots of 4 µl were withdrawn at the time-points indicated in the respective images. […] All the experiments were performed at least in triplicate. • Inhibition profile curves were calculated by quantification of gel-based RNase assays. […] The inhibitory effect of rimegepant on SARS-CoV-2 multiplication in Vero E6 cells was evaluated. […] In addition, the viability of cells in culture was assessed by measuring intracellular ATP levels, using a luminescent assay as described above (CellTiter-Glo® Luminescent Cell Viability Assay). […]

SARS-CoV-2 = assay type: cell-based
SARS-CoV-2 nsp15 = SARS-CoV-2 nsp15 (Severe acute respiratory syndrome coronavirus 2, UniProt P0DTD1); experiment: nsp15 endoribonuclease activity assay (gel-based, 32P-labelled 16-mer RNA); assay type: biochemical
Method: as §1

[3] = cited from earlier work; remark: listed apart in the source

T1 sequence (Q16602 23-461): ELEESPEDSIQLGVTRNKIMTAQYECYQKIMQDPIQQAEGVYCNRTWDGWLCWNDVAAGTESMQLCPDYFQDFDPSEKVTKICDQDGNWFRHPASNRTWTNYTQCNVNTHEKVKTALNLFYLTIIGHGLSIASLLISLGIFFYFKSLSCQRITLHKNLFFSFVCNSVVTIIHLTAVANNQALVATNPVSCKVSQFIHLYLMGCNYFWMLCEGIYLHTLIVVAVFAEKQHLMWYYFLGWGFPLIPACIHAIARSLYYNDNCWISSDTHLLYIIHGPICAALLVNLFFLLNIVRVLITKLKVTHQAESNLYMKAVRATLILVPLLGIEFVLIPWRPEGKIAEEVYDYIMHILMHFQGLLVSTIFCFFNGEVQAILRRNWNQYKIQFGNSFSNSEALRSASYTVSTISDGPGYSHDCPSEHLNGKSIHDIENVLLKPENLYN
T1 sequence (O60894 27-148): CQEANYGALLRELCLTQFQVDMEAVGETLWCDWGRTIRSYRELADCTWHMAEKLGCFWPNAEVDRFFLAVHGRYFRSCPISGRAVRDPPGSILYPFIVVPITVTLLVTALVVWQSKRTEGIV

In the case of `N[C@@H]1c2cccnc2[C@H](OC(=O)N2CCC(n3c(=O)[nH]c4ncccc43)CC2)CC[C@H]1c1cccc(F)c1F` [rimegepant, Rimegepant], the “duration of effect after a single dose” value (CGRP receptor) is listed as “up to 48 h”, the “maximum tolerated dose (MTD)” value ([1]; Phase I clinical trials) is listed as “not found” and the “well tolerated multiple doses” value ([1]; for 14 days, without significant adverse events (Tong et al 2013)) is listed as “up to 600 mg”. The “well tolerated single doses” value ([1]; healthy subjects, compared to placebo (Tong et al 2013)) was “up to 1500 mg”, the IC50 [2] was 1.7 mM and the “duration of antiviral effect” value (SARS-CoV-2; 175 µM of rimegepant) was 72 h. For the same molecule, the “rescue of Vero E6 cells infected with SARS-CoV-2” value (SARS-CoV-2; 175 µM, ATP levels) was “totally rescue the cells from the infection”, the IC50 (SARS-CoV-2 nsp15) was 98.95 ± 0.28 µM and the “plasma concentrations achieved relative to those at 75 mg” value ([3]; Phase I, without finding a maximum tolerated dose) was 50 times. The “administered dose eliminated unchanged” value ([3]; in vivo) was “Approximately 77%”, the bioavailability ([3]; in vivo) was 64% and the elimination half-life ([3]; in vivo) was “approximately 11 h”. The “major metabolites (i.e., > 10%) in plasma” value ([3]; in vivo) was “no major metabolites”, the “Cmax (maximum serum concentrations)” value ([3]; near the low predicted therapeutic dose of 75 mg, Phase I) was 784 ng/mL and the “Tmax (maximum plasma concentrations achieved at)” value ([3]; oral administration of the orally disintegrating tablet) was 1.5 h.
